Results from patent US4885239A, “Rapid differentiation of bacteria using polyether antibiotics” (Eastman Kodak Company, priority 1986, dated 1989).

Experiments:
E. coli (gram -) [1] = test: change in relative fluorescence with water-compatible RIND XXXV (Example 4), E. coli; format: cell-based, Escherichia coli (ATCC 25922); details: 37° C., without antibiotic 2539
Procedure: (§1) gram-negative bacteria Enterobacter cloacae (ATCC 23355), Escherichia coli (ATCC 25922), Proteus vulgaris (ATCC 13315), Klebsiella pneumoniae (ATCC 13883) and Pseudomonas aeruginosa (ATCC 27853), and gram-positive bacteria Staphylococcus aureus (ATCC 25923) and Streptococcus pyogenes (ATCC 19615), and brain heart infusion (BHI) broth from Difco Laboratories (Detroit, Mich.),
(§2) Bacterial suspensions were prepared by growing the cells in BHI to stationary phase overnight at 37° C. P. aeruginosa was grown with agitation. About 40 ml of overnight cultures were centrifuged, decanted and washed once with 0.05 molar potassium phosphate buffer or 0.05 molar N-2-hydroxyethylpiperazine-N'-2-ethanesulfonic acid (HEPES) buffer, pH 7.8, and resuspended in buffer.
A dispersion containing a RIND compound was prepared by dissolving RIND VII from Table II above in N,N-dimethylformamide (DMF) at 16 mg compound per ml of solvent. An aliquot (250 μl) of the resulting solution was added to 500 μl of TRITON X-100 surfactant. This mixture was then added dropwise with stirring to 25 ml of 0.05 molar HEPES buffer. A solution containing a water-compatible RIND compound XXXV was prepared by dissolving the compound (16 mg/ml) in N,N-dimethylformamide which had been acidified with a 0.1% sulfuric acid solution.
A solution was prepared from the following components: 100 μl RIND XXXV solution (16 mg/ml acidified N,N-dimethylformamide), 200 μl glucose solution (10% in water), 200 μl trimethyl-1,4-benzoquinone ETA solution (1.5 mg/ml methanol) and 10 ml HEPES buffer.
Test solutions were prepared from the following reagents: 50 μl HEPES buffer, 50 μl polyether antibiotic A23187 (free acid, 0.01 molar in methanol), 10 μl calcium chloride solution (1 molar) (serial dilutions of buffer and antibiotic were performed to obtain various antibiotic concentrations), 50 μl of the appropriate cell suspensions (E. coli, about 10^8 cells/ml and S. aureus, about 10^8 cells/ml) and 200 μl of the RIND solution. Control solutions were prepared as described in Examples 2 and 3.
Relative fluorescence was measured using a standard spectrophotometer modified to read at excitation of 540 nm and emission of 620 nm. The change (Δ) in relative fluorescence was determined after 30 minutes at 37° C. for several concentration levels of antibiotic.

K. pneumoniae = test: dye formation from RIND VII in presence of calimycin, K. pneumoniae; format: cell-based, Klebsiella pneumoniae (ATCC 13883); parameters: key: 0: no dye formation; +/-: faint dye formation; 1+: light dye formation; 2+: moderate dye formation; 3+: strong dye formation; 4+: very strong dye formation; details: calimycin 10^-3 molar, calcium chloride
Procedure: as §1
(§3) Bacterial suspensions were prepared by growing the cells in BHI to stationary phase overnight at 37° C. P. aeruginosa was grown with agitation. […]
(§4) TERGITOL 7 anionic surfactant was used to differentiate viable bacteria according to the prior art method. […] The amount of dye formed was then determined visually and graded as follows: 0 indicates no dye formation, +/- indicates faint dye formation, 1+ indicates light dye formation, 2+ indicates moderate dye formation, 3+ indicates strong dye formation, and 4+ indicates very strong dye formation.
(§5) Calimycin, a polyether antibiotic, was similarly used with RIND VII in the differentiation of bacteria. Assays were performed as described above, except that 25 μl of 1 molar calcium chloride solution was added to each test solution and the P. aeruginosa response was measured in the presence of 10% yeast extract as the carbon source instead of glucose. […]

S. aureus = test: dye formation from RIND VII in presence of calimycin, S. aureus; format: cell-based, Staphylococcus aureus (ATCC 25923); parameters: key: 0: no dye formation; +/-: faint dye formation; 1+: light dye formation; 2+: moderate dye formation; 3+: strong dye formation; 4+: very strong dye formation; details: calimycin 10^-3 molar, calcium chloride
Procedure: as §1, §3, §4, §5

S. pyogenes = test: dye formation from RIND VII in presence of calimycin, S. pyogenes; format: cell-based, Streptococcus pyogenes (ATCC 19615); parameters: key: 0: no dye formation; +/-: faint dye formation; 1+: light dye formation; 2+: moderate dye formation; 3+: strong dye formation; 4+: very strong dye formation; details: calimycin 10^-3 molar, calcium chloride
Procedure: as §1, §3, §4, §5

E. coli (gram -) [2] = test: change in optical density with tetrazolium salt MTT (Example 5), E. coli; format: cell-based, Escherichia coli (ATCC 25922); details: 540 nm, 37° C., without antibiotic 0.643
Procedure: as §1, §2
The reducible compound solution was prepared with 3-(4,5-dimethyl-2-thiazolyl)-2,5-diphenyl-2H-tetrazolium bromide (MTT) (200 μl of 5 mg/ml methanol), 200 μl glucose solution (10% in water), 200 μl trimethyl-1,4-benzoquinone ETA (1.5 mg/ml methanol) and 12 ml of HEPES buffer (0.05 molar, pH 7.8).
Test solutions were prepared with the following: 50 μl HEPES buffer, 50 μl polyether antibiotic A23187 (free acid, 0.01 molar in methanol), 10 μl calcium chloride (1 molar) (serial dilutions of buffer and antibiotic were performed to obtain various antibiotic concentrations), 50 μl of the appropriate cell suspension, E. coli (about 10^8 cells/ml) or S. aureus (about 10^8 cells/ml), and 200 μl of the MTT solution. Control solutions were prepared as described in previous Examples.
Optical density measurements were obtained at 540 nm using a standard spectrophotometer and the change in optical density (ΔOD) was determined after 30 minutes at 37° C. The resulting data are shown in Table VII below for several concentrations of antibiotic. It is clear from the data that the composition of this example was useful for differentiating bacteria.

CNc1ccc2oc(C[C@H]3O[C@@]4(CC[C@H]3C)O[C@H]([C@H](C)C(=O)c3ccc[nH]3)[C@H](C)C[C@H]4C)nc2c1C(=O)O [calimycin, Calimycin]
Δ Relative Fluorescence after 30 Min. (E. coli (gram -) [1]; antibiotic 1 × 10^-4 molar): 2804
Δ Relative Fluorescence after 30 Min. (E. coli (gram -) [1]; antibiotic 2 × 10^-4 molar): 2540
Δ Relative Fluorescence after 30 Min. (E. coli (gram -) [1]; antibiotic 4 × 10^-4 molar): 2338
Δ Relative Fluorescence after 30 Min. (E. coli (gram -) [1]; antibiotic 8 × 10^-4 molar): 2411
dye formation (K. pneumoniae; 15 Minutes): 4+
dye formation (K. pneumoniae; 30 Minutes): 4+
dye formation (S. aureus; 15 Minutes): 0
dye formation (S. aureus; 30 Minutes): 0
dye formation (S. pyogenes; 15 Minutes): 0
dye formation (S. pyogenes; 30 Minutes): 0
Δ OD after 30 Min. (E. coli (gram -) [2]; antibiotic 1 × 10^-4 molar): 0.503
Δ OD after 30 Min. (E. coli (gram -) [2]; antibiotic 2 × 10^-4 molar): 0.529
Δ OD after 30 Min. (E. coli (gram -) [2]; antibiotic 4 × 10^-4 molar): 0.512
Δ OD after 30 Min. (E. coli (gram -) [2]; antibiotic 8 × 10^-4 molar): 0.413
